Measured values: PubChem BioAssay (NCI)
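Here, GI50 denotes the concentration required for 50% inhibition of growth. The concentration for full growth arrest is given as TGI.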

Key:
Assay in all cases: NCI tumour cell line growth inhibition, 384-well format
ACHN renal = tested on: ACHN renal
BT-549 breast = tested on: BT-549 breast
CAKI-1 renal = tested on: CAKI-1 renal
COLO 205 colon = tested on: COLO 205 colon
KM12 colon = tested on: KM12 colon
OVCAR-4 ovarian = tested on: OVCAR-4 ovarian
RXF 393 renal = tested on: RXF 393 renal
SF-295 CNS = tested on: SF-295 CNS
SF-539 CNS = tested on: SF-539 CNS
SK-MEL-5 melanoma = tested on: SK-MEL-5 melanoma
TK-10 renal = tested on: TK-10 renal
U251 glioblastoma = tested on: U251 glioblastoma
UACC-62 melanoma = tested on: UACC-62 melanoma

## O=S(=O)(c1ccc2c(c1)C(=NO)c1cc(S(=O)(=O)N3CCCCC3)ccc1-2)N1CCCCC1
ACHN renal
  GI50: 17.6 nM
  TGI: 31.6 nM
BT-549 breast
  GI50: 179 nM
  TGI: 319 nM
CAKI-1 renal
  GI50: 19 nM
  TGI: 35.2 nM
COLO 205 colon
  GI50: 184 nM
  TGI: 325 nM
KM12 colon
  GI50: 177 nM
  TGI: 329 nM
OVCAR-4 ovarian
  GI50: 17.9 nM
  TGI: 34.4 nM
RXF 393 renal
  GI50: 118 nM
  TGI: 242 nM
SF-295 CNS
  GI50: 176 nM
  TGI: 316 nM
SF-539 CNS
  GI50: 174 nM
  TGI: 317 nM
SK-MEL-5 melanoma
  GI50: 184 nM
  TGI: 359 nM
TK-10 renal
  GI50: 187 nM
  TGI: 336 nM
U251 glioblastoma
  GI50: 189 nM
  TGI: 341 nM
UACC-62 melanoma
  GI50: 182 nM
  TGI: 323 nM
